# Assay: Compound was evaluated for its stability to dephosphorylation.
# Format: physicochemical
row,half-life [h],Compound
1,4.5,Nc1ncnc2c1ncn2[C@@H]1C[C@@H](OCP(=O)(O)OP(=O)(O)O)[C@@H]2C[C@@H]21
2,> 168,Nc1nc(O)c2ncn([C@@H]3C=C[C@H](OCP(=O)(O)OP(=O)(O)C(Br)(Br)P(=O)(O)O)C3)c2n1
3,0.833,Nc1ncnc2c1ncn2[C@H]1C[C@H](O)[C@@H](COP(=O)(O)OP(=O)(O)OP(=O)(O)O)O1
4,> 168,Nc1ncnc2c1ncn2[C@H]1C[C@H](OCP(=O)(O)OP(=O)(O)O)[C@H]2C[C@H]21
5,> 168,Nc1ncnc2c1ncn2[C@@H]1C[C@@H](OCP(=O)(O)CP(=O)(O)O)[C@@H]2C[C@@H]21
6,> 168,Nc1ncnc2c1ncn2[C@H]1C[C@H](OCP(=O)(O)CP(=O)(O)O)[C@H]2C[C@H]21
7,3,Nc1ncnc2c1ncn2[C@@H]1C=C[C@H](OCP(=O)(O)OP(=O)(O)OP(=O)(O)O)C1
8,> 168,Nc1ncnc2c1ncn2[C@@H]1C=C[C@H](OCP(=O)(O)OP(=O)(O)C(Br)(Br)P(=O)(O)O)C1
9,4,Nc1nc(O)c2ncn([C@@H]3C=C[C@H](OCP(=O)(O)OP(=O)(O)OP(=O)(O)O)C3)c2n1
10,2,Nc1ncnc2c1ncn2[C@H]1C=C[C@@H](OCP(=O)(O)OP(=O)(O)OP(=O)(O)O)C1
11,1,Nc1nc2c(ncn2[C@H]2C[C@H](O)[C@@H](COP(=O)(O)OP(=O)(O)OP(=O)(O)O)O2)c(=O)[nH]1 [DEOXYGUANOSINE TRIPHOSPHATE]
12,< 0.0167,Cc1cn([C@H]2C[C@H](N=[N+]=[N-])[C@@H](CO[P@](=O)(O)O[P@](=O)(O)OP(=O)(O)O)O2)c(=O)[nH]c1=O [ZIDOVUDINE TRIPHOSPHATE]
